Legend:
[1] = molecular target: T1, gastric H/K ATPase (Oryctolagus cuniculus, UniProt P27112); experiment: H+ transport (acidification) by rabbit gastric H/K ATPase vesicles reconstituted in phospholipid-coated PC filters; format: biochemical; settings: 100 μM SCH28080, rabbit gastric vesicles, P<0.02
T1 construct: Hog and stimulated rabbit gastric membrane vesicles are isolated according to methods known in the art; from tissue; host or cells: stimulated rabbit gastric membrane vesicles
Procedure: (§1) Hog and stimulated rabbit gastric membrane vesicles are isolated according to methods known in the art (Saccomani et al. Biochim. Biophys. Acta 465 (1977) 311-330, Cuppoletti, et al. J. Biol. Chem. 259 (1984) 14952-1 4959). A lipid bilayer is made on 0.4 μm polycarbonate filters (area=0.11 cm^2) in Multiscreen Caco-2 filter plates. […] of 40 mg/ml 3:1 POPS:POPE in n-decane is added to the filter (inner well) and after 30 min 100 mM K-gluconate solution is added to both sides (inner & outer wells). After 2 hrs, resistance is measured with a multimeter and Ag/AgCl electrodes to ensure that a bilayer had formed. The K-gluconate solution in the inner well is removed and 5 μl of hog or stimulated rabbit gastric vesicles are added to the inner well and left for 1 hr. Resistance is then measured in 100 mM K-gluconate, KCL, NaCl and NMDGCI. To measure H^+ transport, 200 μl 10 mM KCL is added to the outer well and 100 μl of 100 mM KCL, 10 mM HEPES pH 7.4 is added to the inner well. pH of the medium in the outer well (pHo) is measured using a PHR-146 pH Electrode (LAZAR Research Labs. Los Angeles, Calif.) and an Accumet pH meter 910 (Fisher, Pittsburgh, Pa.). When the pHo is almost constant, 5 μl 100 mM MGATP solution and 1 μl 10 mg/ml valinomycin are added to the inner well and pHo was followed. […] The change in pHo over time is recorded using AXOTAPE (Union City, Calif.).

[2] = tested on: gastric proton pump H/K ATPase; experiment: Example 1: ATP-dependent transport of acid across the bilayer with reconstituted gastric proton pump; format: biochemical; settings: 100 μm SCH-28080
Text: This example illustrates an embodiment of bilayer formation, membrane transport reconstitution and testing for functionality. The bilayer is formed over pores of a polycarbonate substrate comprising naturally present pores or drilled holes. Millipore micro porous polycarbonates of various pore sizes (0.4, 3, 5, and 8 μm, e.g.) are commercially available, and a multi-well porous plastic plate with 10-100 μm Lenox-laser drilled holes (1/well) is available from Procter & Gamble Co. and is used for stable bilayer formation. Techniques for bilayer preparation are known by those of ordinary skill in the art. […] The bilayer is verified according to the gramicidin-D (a cation selective antibiotic) method wherein electrical resistance is monitored to observe the effect of gramicidin in reducing the resistance of the membrane. Current flow is measured by placing one electrode in the desired well and one in the surrounding liquid outside the well. […]
The verified bilayer is incubated with vesicles comprising H/K ATPase or Kv1.5 potassium channels. 3 μl of vesicles is added to each well which was determined to have a verified bilayer. Spontaneous fusion with the bilayer is allowed to proceed for 30 minutes to one hour, at which point H/K ATPase induced acidification or potassium ion currents across the bilayer membrane are measured. […] The current is measured as described earlier, after one hour. […]

[3] = molecular target: T2, gastric H/K ATPase (Sus scrofa, UniProt P19156); experiment: H+ transport (acidification) by hog gastric H/K ATPase vesicles reconstituted in phospholipid-coated PC filters; format: biochemical
T2 construct: Hog and stimulated rabbit gastric membrane vesicles are isolated according to methods known in the art; from tissue; host or cells: hog gastric membrane vesicles
Procedure: as §1

[4] = molecular target: T3, Kv1.5 K+ channels (Homo sapiens, UniProt P22460); experiment: Kv1.5 K+ channel vesicles reconstituted in phospholipid-coated leached PLLA membranes, resistance measurement; format: biochemical; settings: 1 μM compound B, KCl, n=8; PL alone 7.39, PL+Kv1.5 vesicles 0.55 MΩ
T3 construct: expressed in transfected cells; host or cells: Ltk- mouse fibroblast cells, stably transfected, dexamethasone-induced; plasma membrane vesicles
Procedure: (§2) Bilayer formation is studied using PC, PETE and PLLA membranes (area=0.3 cm^2). Phospholipid bilayers are made by adding […] of 3:1 POPS:POPE (40 mg/ml) in n-decane to the membranes and waiting for 30 min. 100 mM KCL/10 mM HEPES (pH 7.4), is then added to both sides of the membrane (150 μl inside insert or well; 200 outside solution) and left for 30 minutes. A multimeter and Ag/AgCl reference electrodes are used to measure the resistance across the phospholipid-coated membranes. When gramicidin D is used, it is mixed with the lipids to a final concentration of 1 μg/ml. 10 μl of the lipid/gramicidin mixture is added to the membranes. After 30 minutes medium is added to both sides of the lipid-coated membrane (both inner and outer wells) and left for another 30 minutes. Resistances of the lipid-coated membranes are measured with two different media bathing the lipid bilayer on both sides: 100 mM KCl/10 mM HEPES (pH 7.4) and 100 mMNMDGCI/10 mM HEPES (pH 7.4). Reconstitution of gramicidin D is also done using the 96-well plastic plate with laser drilled holes and current is measured as described below.
Reconstitution of Kv1.5 K^+ channels is also carried out using lipid coated PLLA membranes (area=0.3 cm2) and resistance is measured as described in the previous section. Effects of compound B are also tested.

[5] = molecular target: T3, Kv1.5 K+ channels; experiment: Kv1.5 K+ channel vesicles reconstituted in phospholipid bilayers in 50 μm laser-drilled holes of a 96-well plastic plate, current measurement; format: biochemical
Procedure: The verified bilayer is incubated with vesicles comprising H/K ATPase or Kv1.5 potassium channels. 3 μl of vesicles is added to each well which was determined to have a verified bilayer. Spontaneous fusion with the bilayer is allowed to proceed for 30 minutes to one hour, at which point H/K ATPase induced acidification or potassium ion currents across the bilayer membrane are measured. A desired amount of […] is added to the well (for example, add 90 μl of 100 mM KCl for […], add 92.5 μl of 100 MM KCl for 750 nM). The well tray is placed back into the holder with the 100 mM KCl and current flow is measured as before. Add a desired amount of a suitable 10 μM inhibitor to achieve a final desired concentration with the final volume of 100 μl. When the gastric proton pump H/K ATPase is reconstituted on the bilayer over the pores, ATP-dependent transport of acid across the bilayer is observed that can be inhibited by 100 μm SCH-28080 (a specific inhibitor of the H/K ATPase). The current is measured as described earlier, after one hour. […] Ion currents are not present when the vesicles lack Kv1.5 or when Kv1.5 vesicles are boiled.
To investigate reconstitution of ion channels, plasma membrane vesicles containing Kv1.5, K^+ channels are prepared from an Ltk^− cell line (mouse fibroblast cells) stably overexpressing Kv1.5 K^+ channels under the control of a dexamethasone promoter as previously described (Matsuno, et al. Biochem. Biophys. Acta 1665 (2004) 184-190). Dexamethasone-specific induction of channel expression is totally specific for Kv1.5 channels. […] A 96-well plastic plate with laser drilled pores varying from 10-100 μm (1/well) is used. Well area is 0.3 cm^2. The phospholipid bilayer is made by adding 5 μl of 40 mg/ml 3:1 POPS:POPE in n-decane to each well. After 30 min 100 mM KCl/20 mM HEPES (pH 7.4) is added to both sides of the bilayer (both inner and outer wells). After a further 30 min, the solution from the inner well is removed and plasma membrane vesicles (5 μl) containing Kv1.5 K^+ channels are added to the lipid coated wells. After 30 min, 100 mM KCl/20 mM HEPES (pH 7.4) is returned to the well and currents across the bilayer are measured with an HS-2A headstage and Gene Clamp 500 amplifier (Axon Instruments, Foster City, Calif.) and filtered at 50 Hz. Voltages ranging from −80 to +70 mV are applied in 10-mV increments for 200 msec and electrical currents are recorded using pCLAMP version 5.5. When indicated, compound B, an inhibitor of Kv1.5 K^+ channels (see U.S. Pat. No. 6,174,908) is added.

[6] = Gramicidin D reconstituted in the phospholipid bilayer in 50 μm holes of the 96-well plastic plate, current measurement; settings: KCl medium, +70 mV
Procedure: as §2, with “below. […]” for “below.”

[7] = Assay of lipid bilayer formation: resistance across phospholipid-coated porous membranes with gramicidin D
Procedure: as §2

[8] = Ion flux across the inventive membrane with gramicidin D as ionophore

T3 sequence (P22460 whole entry): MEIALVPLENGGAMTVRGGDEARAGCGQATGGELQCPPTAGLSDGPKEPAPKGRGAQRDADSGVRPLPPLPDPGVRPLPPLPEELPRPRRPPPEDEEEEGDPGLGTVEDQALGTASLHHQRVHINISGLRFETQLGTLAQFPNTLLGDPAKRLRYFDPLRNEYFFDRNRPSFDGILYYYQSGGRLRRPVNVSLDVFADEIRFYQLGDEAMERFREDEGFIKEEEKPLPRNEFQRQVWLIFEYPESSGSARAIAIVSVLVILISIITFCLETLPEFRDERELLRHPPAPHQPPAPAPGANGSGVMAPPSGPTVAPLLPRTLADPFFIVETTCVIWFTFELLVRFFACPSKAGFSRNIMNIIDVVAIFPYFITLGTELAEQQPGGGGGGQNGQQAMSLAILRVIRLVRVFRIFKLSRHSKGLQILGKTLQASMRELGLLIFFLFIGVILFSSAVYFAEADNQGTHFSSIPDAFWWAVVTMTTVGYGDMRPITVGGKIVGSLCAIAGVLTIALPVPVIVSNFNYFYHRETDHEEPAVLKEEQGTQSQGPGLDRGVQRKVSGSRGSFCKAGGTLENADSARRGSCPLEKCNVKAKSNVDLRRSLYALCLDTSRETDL
T2 sequence (P19156 whole entry): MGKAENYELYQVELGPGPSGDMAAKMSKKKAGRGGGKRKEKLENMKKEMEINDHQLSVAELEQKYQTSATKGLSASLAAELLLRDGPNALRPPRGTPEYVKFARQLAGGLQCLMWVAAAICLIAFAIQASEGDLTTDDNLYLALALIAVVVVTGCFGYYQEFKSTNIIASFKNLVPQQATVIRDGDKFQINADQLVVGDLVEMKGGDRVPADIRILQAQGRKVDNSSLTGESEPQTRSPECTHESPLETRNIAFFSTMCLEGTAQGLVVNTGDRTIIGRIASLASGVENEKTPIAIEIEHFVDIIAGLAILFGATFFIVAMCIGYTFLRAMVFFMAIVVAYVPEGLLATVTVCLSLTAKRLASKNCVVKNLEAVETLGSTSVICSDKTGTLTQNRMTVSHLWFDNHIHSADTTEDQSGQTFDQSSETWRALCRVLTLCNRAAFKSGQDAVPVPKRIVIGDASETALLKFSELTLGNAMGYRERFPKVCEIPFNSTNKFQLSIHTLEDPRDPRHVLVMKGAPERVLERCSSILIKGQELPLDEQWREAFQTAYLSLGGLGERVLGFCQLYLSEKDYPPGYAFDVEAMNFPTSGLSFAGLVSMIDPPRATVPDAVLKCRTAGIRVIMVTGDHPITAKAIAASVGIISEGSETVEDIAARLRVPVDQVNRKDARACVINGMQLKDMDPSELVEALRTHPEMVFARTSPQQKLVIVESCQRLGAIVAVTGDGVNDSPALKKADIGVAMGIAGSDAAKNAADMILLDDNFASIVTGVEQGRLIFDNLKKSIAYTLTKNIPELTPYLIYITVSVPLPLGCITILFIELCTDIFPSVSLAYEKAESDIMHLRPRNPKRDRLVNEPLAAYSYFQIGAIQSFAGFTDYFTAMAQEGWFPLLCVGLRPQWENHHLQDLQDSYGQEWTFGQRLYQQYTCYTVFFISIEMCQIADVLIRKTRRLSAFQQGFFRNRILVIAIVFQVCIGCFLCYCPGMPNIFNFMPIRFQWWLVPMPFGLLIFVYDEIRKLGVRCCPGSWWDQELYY
T2 sequence (P18434 whole entry partner): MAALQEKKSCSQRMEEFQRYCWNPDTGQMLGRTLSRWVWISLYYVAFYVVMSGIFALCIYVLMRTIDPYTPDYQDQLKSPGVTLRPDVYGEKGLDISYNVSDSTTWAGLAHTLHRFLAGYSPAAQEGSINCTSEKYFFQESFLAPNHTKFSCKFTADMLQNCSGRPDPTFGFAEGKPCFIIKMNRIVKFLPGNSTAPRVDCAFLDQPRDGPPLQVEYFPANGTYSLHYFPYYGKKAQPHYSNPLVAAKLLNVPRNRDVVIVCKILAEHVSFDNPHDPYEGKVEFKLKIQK
T1 sequence (P27112 whole entry): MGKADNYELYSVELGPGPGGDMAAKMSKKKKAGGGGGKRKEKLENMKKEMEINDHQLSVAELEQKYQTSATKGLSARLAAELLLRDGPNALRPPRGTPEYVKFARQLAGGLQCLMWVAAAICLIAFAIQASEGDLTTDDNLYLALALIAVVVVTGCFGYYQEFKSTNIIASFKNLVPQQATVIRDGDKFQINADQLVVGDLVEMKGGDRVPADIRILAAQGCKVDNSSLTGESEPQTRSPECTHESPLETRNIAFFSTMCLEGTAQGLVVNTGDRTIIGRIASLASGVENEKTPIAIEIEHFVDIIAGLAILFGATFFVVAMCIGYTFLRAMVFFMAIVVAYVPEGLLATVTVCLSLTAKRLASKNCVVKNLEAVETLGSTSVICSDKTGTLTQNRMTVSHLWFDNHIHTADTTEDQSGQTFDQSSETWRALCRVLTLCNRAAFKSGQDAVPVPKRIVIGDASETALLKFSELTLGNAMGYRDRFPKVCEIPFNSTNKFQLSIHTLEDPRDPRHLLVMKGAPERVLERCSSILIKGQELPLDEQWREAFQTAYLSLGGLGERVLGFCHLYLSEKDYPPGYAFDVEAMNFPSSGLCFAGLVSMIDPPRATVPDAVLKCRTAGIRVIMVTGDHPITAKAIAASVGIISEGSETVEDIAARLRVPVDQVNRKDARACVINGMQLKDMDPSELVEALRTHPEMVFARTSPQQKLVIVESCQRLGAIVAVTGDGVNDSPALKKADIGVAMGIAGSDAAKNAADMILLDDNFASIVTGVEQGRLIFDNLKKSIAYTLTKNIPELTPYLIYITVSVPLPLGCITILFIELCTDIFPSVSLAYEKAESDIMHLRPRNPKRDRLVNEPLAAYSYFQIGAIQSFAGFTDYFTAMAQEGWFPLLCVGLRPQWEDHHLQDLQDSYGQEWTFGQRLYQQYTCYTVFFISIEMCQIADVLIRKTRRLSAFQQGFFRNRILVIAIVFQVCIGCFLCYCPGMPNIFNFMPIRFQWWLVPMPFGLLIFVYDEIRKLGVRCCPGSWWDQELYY
T1 sequence (P18597 whole entry partner): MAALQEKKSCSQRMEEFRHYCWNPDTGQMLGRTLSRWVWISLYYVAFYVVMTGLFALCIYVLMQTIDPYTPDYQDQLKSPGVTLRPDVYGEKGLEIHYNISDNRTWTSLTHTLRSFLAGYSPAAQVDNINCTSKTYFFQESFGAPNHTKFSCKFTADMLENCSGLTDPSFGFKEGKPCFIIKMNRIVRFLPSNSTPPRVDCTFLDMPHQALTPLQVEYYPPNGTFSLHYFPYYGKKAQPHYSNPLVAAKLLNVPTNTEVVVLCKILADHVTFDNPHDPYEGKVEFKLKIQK

Cc1nc2c(OCc3ccccc3)cccn2c1CC#N [SCH28080]
effect on H+ flux (rate of acidification) [1]: significantly reduces | effect on ATP-dependent transport of acid across the bilayer [2]: inhibited | effect on H+ flux (rate of acidification) ([3]; 100 μM SCH28080, hog gastric vesicles, P<0.05): significantly reduces | effect on acidification of outer well medium (representative experiment) ([3]; 100 μM SCH28080, hog vesicles, 5 mM MgATP, 100 μg/ml valinomycin): blocks acidification

COc1ccc(CCN2C(=O)CSC2c2ccc(C)c(C)c2)cc1 (centres unmarked) [compound B, 2-(3,4-dimethyphenyl)-3-[2-(4-methoxyphenyl)ethyl]-thiazolidin4-one]
resistance of PLLA membrane + phospholipids + Kv1.5 vesicles after inhibitor [4]: 4.13±0.52 MΩ | effect on Kv1.5 K+ channel currents (I-V curve) ([5]; 200 nM and 500 nM compound B): inhibited | effect on Kv1.5 K+ current after addition of Kv1.5 vesicles ([5]; 1 μM compound B, P<0.001): inhibited | effect on potassium ion currents of membrane fused with Kv1.5 vesicles (Example 1) ([5]; concentration not given): inhibited | IC50 ([5]; sigmoidal dose-response plot, n=6, 100 mM KCl/20 mM HEPES pH 7.4, read-out: IC50, Kv1.5-mediated K+ currents expressed as ΔI at 70 mV as % maximum): 170 ± 40 nM

gramicidin D
current with gramicidin D [6]: about 30 μVA | resistance with gramicidin D, PETE membranes ([7]; KCl, n=5, PL alone 39.25 MΩ): 5.41±1.11 MΩ | change of resistance with gramicidin D, PETE membranes ([7]; NMDGCl): did not change | resistance after gramicidin D, PC filters with 3, 5 and 8 μm pores ([7]; presence of K+ (100 mM KCl), P<0.005): virtually zero | resistance on addition of gramicidin D, leached PLLA membranes ([7]; presence of K+, n=6, PL alone 11.38 MΩ): 0.23±0.15 MΩ | change of resistance on addition of gramicidin D, leached PLLA membranes ([7]; presence of NMDG+): unaffected | reduction of resistance by gramicidin D, PC filters with 3, 5 and 8 μm pores ([7]; presence of NMDG+ (impermeant cation)): not | flux across the inventive membrane [8]: 10^8 ions per second, per gramicidin D molecule

Reference: patent US7833805B2, “Selectively permeable membranes on porous substrates” (University of Cincinnati, priority 2004, dated 2010)
